One assay addresses MET (cMet) (Homo sapiens, UniProt P08581). Description: Tyrosine kinase inhibition assay. The class given is biochemical. Particulars: for IC50: read-out: IC50 of compound; for inhibition at 1 µM: single concentration 1.0 μM, read-out: percent inhibition. The method, then: (§1) Tyrosine kinase inhibition assays were performed at ThermoFisher Life Technologies (Madison, WI, USA) using standard protocols (SelectScreen Biochemical Profiling Service, Thermo Fisher Scientific). ATP concentrations used were at the apparent Km. Test compounds were screened in 1% dimethylsulffoxide (DMSO) (final concentration) in the well. For 10-point titrations, 3-fold serial dilutions were conducted from the starting concentration of […]. All Peptide/Kinase Mixtures were diluted to a 2× working concentration in the appropriate Kinase Buffer. All ATP Solutions were diluted to a 4× working concentration in Kinase Buffer (50 mM HEPES pH 7.5, 0.01% BRIJ-35, 10 mM MgCl2, 1 mM EGTA). The apparent ATP Km was previously determined using a Z′-LYTE assay. The Development Reagent was diluted in Development Buffer.
(§2) The inhibition activities of compounds were determined in biochemical assays using single concentration (1.0 μM) measurements. The results were provided as percent inhibition values.

In another assay the target is KDR (VEGFR2) (Homo sapiens, UniProt P35968). Put plainly: Tyrosine kinase inhibition assay. The format is biochemical. Particulars: for IC50: read-out: IC50 of compound; for inhibition at 1 µM: single concentration 1.0 μM, read-out: percent inhibition. The method, then:
as §1, §2

Another assay addresses T1, EPHB2 (Homo sapiens, UniProt P29323).
T1 sequence (P29323 19-1055): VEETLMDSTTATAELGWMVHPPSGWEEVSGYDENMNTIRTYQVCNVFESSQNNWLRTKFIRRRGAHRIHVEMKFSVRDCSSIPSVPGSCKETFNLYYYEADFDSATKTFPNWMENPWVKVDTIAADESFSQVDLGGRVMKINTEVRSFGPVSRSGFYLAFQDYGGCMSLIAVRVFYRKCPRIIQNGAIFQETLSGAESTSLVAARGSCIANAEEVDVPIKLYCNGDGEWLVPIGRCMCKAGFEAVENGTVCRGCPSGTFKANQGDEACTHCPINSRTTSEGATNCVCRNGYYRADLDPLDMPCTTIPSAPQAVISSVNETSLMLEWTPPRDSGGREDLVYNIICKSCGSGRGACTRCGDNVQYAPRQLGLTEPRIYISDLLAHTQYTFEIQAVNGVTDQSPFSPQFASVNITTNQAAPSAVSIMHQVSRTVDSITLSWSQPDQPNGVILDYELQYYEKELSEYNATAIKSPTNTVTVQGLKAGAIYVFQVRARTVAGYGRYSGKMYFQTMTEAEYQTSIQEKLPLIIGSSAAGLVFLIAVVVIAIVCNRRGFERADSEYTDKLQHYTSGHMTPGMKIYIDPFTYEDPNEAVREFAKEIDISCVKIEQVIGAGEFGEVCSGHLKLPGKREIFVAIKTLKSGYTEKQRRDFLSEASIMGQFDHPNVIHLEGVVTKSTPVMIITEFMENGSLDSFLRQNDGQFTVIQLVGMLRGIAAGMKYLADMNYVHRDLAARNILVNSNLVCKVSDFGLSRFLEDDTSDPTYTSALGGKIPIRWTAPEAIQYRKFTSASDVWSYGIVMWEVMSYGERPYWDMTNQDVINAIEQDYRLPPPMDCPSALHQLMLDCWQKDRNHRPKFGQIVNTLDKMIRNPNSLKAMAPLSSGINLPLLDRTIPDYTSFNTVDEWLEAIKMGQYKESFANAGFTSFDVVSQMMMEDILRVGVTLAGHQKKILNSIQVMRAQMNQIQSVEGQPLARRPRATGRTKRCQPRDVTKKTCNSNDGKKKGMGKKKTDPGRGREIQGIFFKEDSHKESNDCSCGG
Put plainly: Tyrosine kinase inhibition assay. The class given is biochemical. The following applies: single concentration 1.0 μM, read-out: percent inhibition.

The subject of assay [1] is NCI-60 human cancer cell lines. Put plainly: NCI-60 screen (SRB), panel average. The class given is cell-based. Particulars: average over the NCI-60 cell lines of the table. The method, then: The human tumor cell lines of the cancer screening panel are grown in RPMI 1640 medium containing 5% fetal bovine serum and 2 mM L-glutamine. For a typical screening experiment, cells are inoculated into 96 well microtiter plates in 100 μL at plating densities ranging from 5,000 to 40,000 cells/well depending on the doubling time of individual cell lines. After cell inoculation, the microtiter plates are incubated at 37° C., 5% CO2, 95% air and 100% relative humidity for 24 h prior to addition of experimental drugs. After 24 h, two plates of each cell line are fixed in situ with TCA, to represent a measurement of the cell population for each cell line at the time of drug addition (Tz). Experimental drugs are solubilized in dimethyl sulfoxide at 400-fold the desired final maximum test concentration and stored frozen prior to use. At the time of drug addition, an aliquot of frozen concentrate is thawed and diluted to twice the desired final maximum test concentration with complete medium containing 50 µg/ml gentamicin. An additional four, 10-fold or M log serial dilutions are made to provide a total of five drug concentrations plus control. Aliquots of 100 μl of these different drug dilutions are added to the appropriate microtiter wells already containing 100 μl of medium, resulting in the required final drug concentrations. Following drug addition, the plates are incubated for an additional 48 h at 37° C., 5% CO2, 95% air, and 100% relative humidity. For adherent cells, the assay is terminated by the addition of cold TCA. Cells are fixed in situ by the gentle addition of 50 μl of cold 50% (w/v) TCA (final concentration, 10% TCA) and incubated for 60 minutes at 4° C. The supernatant is discarded, and the plates are washed five times with tap water and air dried. Sulforhodamine B (SRB) solution (100 l) at 0.4% (w/v) in 1% acetic acid is added to each well, and plates are incubated for 10 minutes at room temperature. […] Bound stain is subsequently solubilized with 10 mM trizma base, and the absorbance is read on an automated plate reader at a wavelength of 515 nm. […]

Molecules are shown by their SMILES.

Sequence of MET (cMet) (P08581 25-1390): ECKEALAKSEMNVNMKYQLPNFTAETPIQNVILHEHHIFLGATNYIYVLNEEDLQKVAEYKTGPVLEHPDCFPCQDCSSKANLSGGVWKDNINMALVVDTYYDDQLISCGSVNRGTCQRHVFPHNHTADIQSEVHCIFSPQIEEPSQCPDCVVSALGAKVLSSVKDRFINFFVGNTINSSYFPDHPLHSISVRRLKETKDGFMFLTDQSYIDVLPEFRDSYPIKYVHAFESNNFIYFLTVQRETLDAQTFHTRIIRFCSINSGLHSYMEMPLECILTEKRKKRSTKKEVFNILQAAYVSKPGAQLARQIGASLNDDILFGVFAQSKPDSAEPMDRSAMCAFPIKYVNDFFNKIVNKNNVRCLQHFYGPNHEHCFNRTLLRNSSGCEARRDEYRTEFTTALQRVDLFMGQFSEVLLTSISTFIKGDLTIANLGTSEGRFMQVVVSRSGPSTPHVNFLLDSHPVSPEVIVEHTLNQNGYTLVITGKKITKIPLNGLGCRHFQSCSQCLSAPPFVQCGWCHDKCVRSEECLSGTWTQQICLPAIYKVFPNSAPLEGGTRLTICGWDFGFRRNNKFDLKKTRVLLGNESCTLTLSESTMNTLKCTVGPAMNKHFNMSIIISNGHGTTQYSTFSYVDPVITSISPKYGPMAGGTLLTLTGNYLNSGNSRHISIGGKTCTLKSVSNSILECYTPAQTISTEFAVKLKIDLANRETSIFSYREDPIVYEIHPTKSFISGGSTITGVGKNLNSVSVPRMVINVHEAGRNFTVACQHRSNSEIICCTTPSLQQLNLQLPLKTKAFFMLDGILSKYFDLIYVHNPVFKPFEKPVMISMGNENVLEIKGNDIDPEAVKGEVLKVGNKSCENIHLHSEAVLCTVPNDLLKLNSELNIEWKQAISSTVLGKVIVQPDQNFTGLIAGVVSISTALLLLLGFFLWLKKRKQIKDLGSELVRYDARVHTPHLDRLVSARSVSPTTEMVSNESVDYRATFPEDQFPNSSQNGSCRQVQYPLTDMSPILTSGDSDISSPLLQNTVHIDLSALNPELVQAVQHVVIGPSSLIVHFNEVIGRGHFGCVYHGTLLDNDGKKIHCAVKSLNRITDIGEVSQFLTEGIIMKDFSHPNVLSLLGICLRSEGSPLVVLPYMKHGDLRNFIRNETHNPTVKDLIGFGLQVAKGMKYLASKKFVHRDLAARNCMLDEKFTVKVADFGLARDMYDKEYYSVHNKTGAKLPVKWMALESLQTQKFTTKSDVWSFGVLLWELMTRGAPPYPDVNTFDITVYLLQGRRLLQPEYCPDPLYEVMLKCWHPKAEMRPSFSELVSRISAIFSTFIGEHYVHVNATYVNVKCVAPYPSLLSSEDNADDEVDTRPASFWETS
Sequence of KDR (VEGFR2) (P35968 20-1356): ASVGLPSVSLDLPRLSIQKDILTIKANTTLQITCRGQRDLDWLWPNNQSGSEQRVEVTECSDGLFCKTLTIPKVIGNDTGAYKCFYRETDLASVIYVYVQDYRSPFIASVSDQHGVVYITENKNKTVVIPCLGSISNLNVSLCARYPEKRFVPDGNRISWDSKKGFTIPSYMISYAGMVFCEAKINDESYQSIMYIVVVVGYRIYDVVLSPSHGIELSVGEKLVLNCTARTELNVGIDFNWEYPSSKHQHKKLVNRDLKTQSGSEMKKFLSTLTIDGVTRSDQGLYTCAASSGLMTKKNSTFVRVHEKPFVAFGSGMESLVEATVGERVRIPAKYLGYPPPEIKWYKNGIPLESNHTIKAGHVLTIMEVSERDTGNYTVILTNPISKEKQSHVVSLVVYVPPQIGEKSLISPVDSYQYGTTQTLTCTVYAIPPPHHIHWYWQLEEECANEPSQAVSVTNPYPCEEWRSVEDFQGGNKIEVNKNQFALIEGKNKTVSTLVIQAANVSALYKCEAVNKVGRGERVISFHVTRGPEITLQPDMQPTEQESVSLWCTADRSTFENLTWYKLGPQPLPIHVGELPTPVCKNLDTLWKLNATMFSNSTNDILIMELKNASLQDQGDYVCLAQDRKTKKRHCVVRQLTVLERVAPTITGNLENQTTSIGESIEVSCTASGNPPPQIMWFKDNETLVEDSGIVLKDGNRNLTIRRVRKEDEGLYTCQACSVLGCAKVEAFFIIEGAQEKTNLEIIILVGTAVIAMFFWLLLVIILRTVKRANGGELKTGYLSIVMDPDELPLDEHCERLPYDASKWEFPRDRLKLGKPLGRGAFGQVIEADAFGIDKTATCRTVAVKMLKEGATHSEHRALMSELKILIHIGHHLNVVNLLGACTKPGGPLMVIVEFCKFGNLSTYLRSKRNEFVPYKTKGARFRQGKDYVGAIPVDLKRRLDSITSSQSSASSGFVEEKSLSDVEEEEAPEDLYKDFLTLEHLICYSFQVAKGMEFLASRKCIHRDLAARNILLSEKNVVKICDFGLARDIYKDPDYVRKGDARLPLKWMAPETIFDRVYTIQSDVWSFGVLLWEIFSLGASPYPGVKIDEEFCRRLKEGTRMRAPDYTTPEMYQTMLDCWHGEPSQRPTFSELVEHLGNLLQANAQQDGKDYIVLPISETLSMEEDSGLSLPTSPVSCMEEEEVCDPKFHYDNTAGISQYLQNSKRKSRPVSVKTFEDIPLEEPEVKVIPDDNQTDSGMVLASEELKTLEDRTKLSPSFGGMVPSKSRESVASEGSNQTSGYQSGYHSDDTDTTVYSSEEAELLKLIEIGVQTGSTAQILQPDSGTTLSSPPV

Consider `CNC(=O)c1cc2c(Oc3ccc(NC(=O)C4(C(=O)Nc5ccc(F)cc5)CC4)cc3)ccnc2cc1OC` [Zanzalintinib, reference compound], for which the half-maximal inhibitory concentration (IC50) at MET (cMet) is 4.26 nM; on KDR (VEGFR2), 2.43 nM.

On to `COc1cc2nccc(Oc3ccc(NC(=O)C4(C(=O)Nc5ccc(F)cc5)CC4)cc3F)c2cc1Oc1ccc(N)cc1F` [Cbo-23], for which the results for the half-maximal inhibitory concentration (IC50) at MET (cMet) and at KDR (VEGFR2) were 35.2 nM and 29.2 nM, respectively. Besides, the inhibition at 1 µM at MET (cMet) was determined as 98%; on KDR (VEGFR2) it was 98%; at EPHB2, 100%. Moreover, in assay [1], the GI50 came to 730 nM.

Turning to `COc1cc2nccc(Oc3ccc(NC(=O)C4(NC(=O)c5ccc(F)cc5)CC4)cc3F)c2cc1Oc1ccc(N)cc1F` [Cbo-10], the inhibition at 1 µM on MET (cMet) came out at 95%; on KDR (VEGFR2), 98%; on EPHB2 it was 64%. Further, it took 1570 nM to inhibit growth in assay [1] by half (GI50).

With `COc1cc2nccc(Oc3ccc(NC(=O)C4(NC(=O)c5ccc(F)cc5)CC4)cc3F)c2cc1OC` [Cbo-02, N-(1-((4-((6,7-diMethoxyquinolin-4-yl)oxy)-3-fluorophenyl)carbamoyl)cyclopropyl)-4-fluorobenzamide], the inhibition at 1 µM amounted to 100% at MET (cMet), 96% at KDR (VEGFR2) and 13% on EPHB2. Besides, in assay [1], growth was halved (GI50) at 2560 nM.

`COc1cc2nccc(Oc3ccc(NC(=O)C4(NC(=O)c5ccc(F)cc5)CC4)cc3F)c2cc1Oc1c(F)cc(N)cc1F` [Cbo-14]: the inhibition at 1 µM on MET (cMet) worked out at 97%; on KDR (VEGFR2) it was 100%; at EPHB2 it was 77%.

The IC50 is the concentration at which inhibition is half-maximal. What is called inhibition is the relative decrease from the control value, in per cent. By GI50 is commonly meant the concentration that inhibits growth by half. Low readings indicate more potent growth inhibition, high ones less potent growth inhibition.

Values taken from patent US20250120967A1, “TYROSINE KINASES INHIBITORS AND USES THEREOF” (GREAT NOVEL THERAPEUTICS BIOTECH & MEDICALS CORPORATION, priority 2023, published 2025).
